Article PMC8612152, “Mapping Molecular Recognition of β1,3-1,4-Glucans by a Surface Glycan-Binding Protein from the Human Gut Symbiont Bacteroides ovatus” (Microbiology Spectrum, 2021)

Key:
Format in all cases: binding
[1] = molecular target: T1, BoSGBPMLG-A (Bacteroides ovatus, UniProt A0AAN3A7L1); assay: microscale thermophoresis; conditions: 50 mM HEPES pH 7.5, 100 mM NaCl, 5 mM CaCl2, 5 mM TCEP, 0.05% Tween 20, 25°C; protein NT-647 labelled; one-site model
T1 construct: gene BACOVA_02743; residues 24-558, signal peptide and lipidation Cys excluded, N-terminal His6 tag (pHTP1-A57), expressed in E. coli BL21(DE3); NT-647 dye labelled for MST
T1 sequence (A0AAN3A7L1 24-558): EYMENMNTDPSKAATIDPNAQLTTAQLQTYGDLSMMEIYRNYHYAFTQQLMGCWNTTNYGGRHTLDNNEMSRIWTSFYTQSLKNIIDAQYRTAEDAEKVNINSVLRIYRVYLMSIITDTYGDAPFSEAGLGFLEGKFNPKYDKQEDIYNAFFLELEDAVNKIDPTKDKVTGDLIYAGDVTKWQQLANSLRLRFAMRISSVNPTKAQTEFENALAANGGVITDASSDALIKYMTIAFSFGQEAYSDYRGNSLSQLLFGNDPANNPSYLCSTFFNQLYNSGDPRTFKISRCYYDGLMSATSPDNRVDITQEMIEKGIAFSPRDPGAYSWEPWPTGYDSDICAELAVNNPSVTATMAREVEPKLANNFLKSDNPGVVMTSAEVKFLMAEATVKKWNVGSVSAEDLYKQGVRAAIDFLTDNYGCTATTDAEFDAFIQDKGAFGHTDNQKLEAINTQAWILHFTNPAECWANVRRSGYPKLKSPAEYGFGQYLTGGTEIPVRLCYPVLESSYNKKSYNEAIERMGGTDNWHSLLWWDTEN

[2] = molecular target: T2, BoSGBPMLG-A-ZB (Bacteroides ovatus, UniProt A0AAN3A7L1); assay: X-ray crystal structure of the complex, […] Å; conditions: co-crystallised after overnight incubation with 0.33 mM ligand, 1 mM MgCl2; pH 5.5
T2 construct: gene BACOVA_02743; residues 39-558, N-terminal His6 and Zbasic (ZB) tag (pNIC-ZB), expressed in E. coli BL21(DE3); model covers residues 40-559 as printed; 68 kDa
T2 sequence (A0AAN3A7L1 39-558): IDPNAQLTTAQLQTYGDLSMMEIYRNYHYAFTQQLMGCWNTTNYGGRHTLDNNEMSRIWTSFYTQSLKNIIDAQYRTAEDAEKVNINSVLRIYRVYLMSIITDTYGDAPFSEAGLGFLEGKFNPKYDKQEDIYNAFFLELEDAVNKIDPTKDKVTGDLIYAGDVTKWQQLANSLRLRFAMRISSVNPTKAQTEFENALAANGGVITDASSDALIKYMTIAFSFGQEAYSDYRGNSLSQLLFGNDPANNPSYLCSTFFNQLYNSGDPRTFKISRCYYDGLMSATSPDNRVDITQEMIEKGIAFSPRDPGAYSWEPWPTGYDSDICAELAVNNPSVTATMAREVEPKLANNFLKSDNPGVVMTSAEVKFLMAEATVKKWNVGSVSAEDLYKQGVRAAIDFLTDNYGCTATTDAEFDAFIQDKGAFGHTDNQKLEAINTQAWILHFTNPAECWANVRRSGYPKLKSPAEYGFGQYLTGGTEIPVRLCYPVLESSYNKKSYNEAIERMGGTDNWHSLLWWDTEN

[3] = molecular target: T1, BoSGBPMLG-A; assay: microscale thermophoresis; conditions: 50 mM HEPES pH 7.5, 100 mM NaCl, 5 mM CaCl2, 5 mM TCEP, 0.05% Tween 20, 25°C; protein NT-647 labelled; weak, affinity not determinable (ligand solubility)

SMILES | Ka [1] | X-ray crystal structure of the complex, 1.43 Å [2] | microscale thermophoresis [3]
OC[C@H]1O[C@@H](O[C@H]2[C@H](O)[C@@H](O)[C@H](O[C@@H]3[C@@H](O)[C@H](O[C@H]4[C@H](O)[C@@H](O)[C@H](O[C@H]5[C@H](O)[C@@H](O)[C@H](O[C@H]6[C@H](O)[C@@H](CO)OC(O)[C@@H]6O)O[C@@H]5CO)O[C@@H]4CO)O[C@H](CO)[C@H]3O)O[C@@H]2CO)[C@H](O)[C@@H](O)[C@@H]1O (stereo partly drawn) [barley-6] | (1.53 ± 0.23) x 10^5 | – | –
OC[C@H]1O[C@@H](O[C@H]2[C@H](O)[C@@H](O)[C@H](O[C@H]3[C@H](O)[C@@H](O)[C@H](O[C@@H]4[C@@H](O)[C@H](O[C@H]5[C@H](O)[C@@H](O)[C@H](O[C@H]6[C@H](O)[C@@H](O)[C@H](O[C@H]7[C@H](O)[C@@H](CO)OC(O)[C@@H]7O)O[C@@H]6CO)O[C@@H]5CO)O[C@H](CO)[C@H]4O)O[C@@H]3CO)O[C@@H]2CO)[C@H](O)[C@@H](O)[C@@H]1O (stereo partly drawn) [barley-7] | (1.06 ± 0.18) x 10^5 | – | –
OC[C@H]1O[C@@H](O[C@@H]2[C@@H](O)[C@H](O[C@H]3[C@H](O)[C@@H](O)[C@H](O[C@H]4[C@H](O)[C@@H](O)[C@H](O[C@@H]5[C@@H](O)[C@H](O[C@H]6[C@H](O)[C@@H](O)[C@H](O[C@H]7[C@H](O)[C@@H](O)[C@H](O[C@H]8[C@H](O)[C@@H](CO)OC(O)[C@@H]8O)O[C@@H]7CO)O[C@@H]6CO)O[C@H](CO)[C@H]5O)O[C@@H]4CO)O[C@@H]3CO)O[C@H](CO)[C@H]2O)[C@H](O)[C@@H](O)[C@@H]1O (stereo partly drawn) [barley-8] | (4.29 ± 1.15) x 10^5 | – | –
OC[C@H]1O[C@@H](O[C@H]2[C@H](O)[C@@H](O)[C@H](O[C@@H]3[C@@H](O)[C@H](O[C@H]4[C@H](O)[C@@H](O)[C@H](O[C@H]5[C@H](O)[C@@H](O)[C@H](O[C@@H]6[C@@H](O)[C@H](O[C@H]7[C@H](O)[C@@H](O)[C@H](O[C@H]8[C@H](O)[C@@H](O)[C@H](O[C@H]9[C@H](O)[C@@H](CO)OC(O)[C@@H]9O)O[C@@H]8CO)O[C@@H]7CO)O[C@H](CO)[C@H]6O)O[C@@H]5CO)O[C@@H]4CO)O[C@H](CO)[C@H]3O)O[C@@H]2CO)[C@H](O)[C@@H](O)[C@@H]1O (stereo partly drawn) [barley-9] | (4.62 ± 1.02) × 10^5 | structure of BoSGBPMLG-A in complex with barley-9 (G4G3G4G4G3G4G4G3G) | –
OC[C@H]1O[C@@H](O[C@H]2[C@H](O)[C@@H](O)[C@H](O[C@H]3[C@H](O)[C@@H](O)[C@H](O[C@H]4[C@H](O)[C@@H](O)[C@H](O[C@H]5[C@H](O)[C@@H](O)[C@H](O[C@H]6[C@H](O)[C@@H](O)[C@H](O[C@H]7[C@H](O)[C@@H](O)C(O)O[C@@H]7CO)O[C@@H]6CO)O[C@@H]5CO)O[C@@H]4CO)O[C@@H]3CO)O[C@@H]2CO)[C@H](O)[C@@H](O)[C@@H]1O (stereo partly drawn) [cello-7] | – | – | For the more weakly binding cello-7, it was not possible to determine the affinity
